In patent US20160159861A1, “APJ Receptor Compounds” (priority 2013, published 2016):
Where two headings read alike, the source gives them in different places. Peptide text beside a SMILES is read from it.

Legend:
[1] = target: T1, human APJ receptor (hAPJ) (Homo sapiens, UniProt P35414); experiment: HTRF cAMP assay: inhibition of NKH477-stimulated cAMP in HEK cells stably expressing hAPJ; type: cell-based; conditions: for % IA (cAMP inhibition, hAPJ HEK): intrinsic activity; for Ranking: composite class of EC50 (hAPJ), % IA and % histamine or formal (+) charge; for Emax: HEK293, read-out: % IA, bound stated; for inhibition of NKH477-stimulated increase in cAMP, dose dependent: concentration response curves, FIGS. 1 and 2, HEK cells stably expressing APJ
T1 construct: expressed in transfected cells
T1 sequence (P35414 1-380): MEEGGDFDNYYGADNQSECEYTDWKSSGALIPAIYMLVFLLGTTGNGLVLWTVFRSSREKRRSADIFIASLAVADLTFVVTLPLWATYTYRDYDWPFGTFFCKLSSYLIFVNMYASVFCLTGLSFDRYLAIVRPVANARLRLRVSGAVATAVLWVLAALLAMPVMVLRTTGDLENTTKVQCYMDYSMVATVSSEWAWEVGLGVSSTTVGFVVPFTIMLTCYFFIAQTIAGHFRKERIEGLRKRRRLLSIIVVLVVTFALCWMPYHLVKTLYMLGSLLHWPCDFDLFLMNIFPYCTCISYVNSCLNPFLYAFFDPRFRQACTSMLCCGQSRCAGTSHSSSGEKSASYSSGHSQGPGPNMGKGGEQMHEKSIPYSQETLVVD
From the text: HTRF cAMP Assay and IP-One Assay (Cisbio)
HTRF (homogeneous time resolved fluorescence) is a technology developed by Cisbio Bioassays based on TR-FRET (time-resolved fluorescence resonance energy transfer). Cisbio Bioassays has developed a wide selection of HTRF-based assays compatible with whole cells, thereby enabling functional assays to run under more physiological conditions. The IP-One assays are competitive immunoassays using cryptate-labeled anti-IP1 monoclonal antibody and d2-labeled IP1. IP1 is a relatively stable downstream metabolite of IP3, and accumulates in cells following Gq receptor activation.
cAMP kits based on a competitive immunoassay using cryptate-labeled anti-cAMP antibody and d2-labeled cAMP were used to assay the effects of APJ compounds of the present invention. […] Cells are treated with 1 nG/mL doxycycline and seeded in all white 96 well plates @40 k/well overnight.

[2] = system: rat peritoneal cells; experiment: Ex vivo histamine release assay in rat peritoneal cells (vs. Compound 48/80); type: cell-based
From the text: More desirable pharmacological tolerability can include a decrease in an undesirable side effect (e.g., histamine release, an indicator of mast cell degranulation) without a significant loss in activity of the compound.
Screening of the variant G protein receptor compounds against a control compound for histamine release can be done following standard assays. The standard assay can include comparison to a control compound known to elicit a histamine response (e.g., 48/80 having CAS No. 94724-12-6). Such an assay using rat peritoneal cells is described herein for the APJ compounds.
Test compounds were assayed in the ex vivo histamine release assay using a 3-point dose response. Concentrations of total histamine contained in the cells is used to correct for variability in the numbers of mast cells in the lavage per well.
Resident peritoneal cells were harvested from naïve Sprague Dawley rats (male 200-300 gr, Charles River). Rats were euthanized by CO2 asphyxiation and a skin incision was made along the middle-line of the abdomen. Thirty milliliters of HBSS (HyClone, cat#SH 30268.01) containing 20 mM HEPES and 0.2% BSA (heretofore Assay Buffer) were injected intraperitoneally using a 30 mL syringe with the attached 18 gauge needle. The abdomen was gently lavaged for 1-2 min and 7-10 milliliters of the peritoneal lavage were carefully aspirated. Cell count in the peritoneal lavage was determined using Cellometer Auto T4 (Nexcelom Bioscience). The peritoneal cell count was adjusted to […] cells/mL in Assay Buffer. Rat peritoneal cells were kept at room temperature before and during the assay.
For the 10-point assay, 3-fold serial dilutions were prepared for each test compound in 100% DMSO in 96-well plates (Greiner Bio One, Ref#651261)—from 100 μM down to […]. For the 3-point assay, 10-fold serial dilutions were prepared in 100% DMSO at 100 μM, 10 μM and 1 μM concentrations. From this plate, 5 μL of compound were transferred to a new plate containing 45 μL Assay Buffer to generate a compound plate with 10× final concentrations in 10% DMSO with Assay Buffer. In the final plates, column 11 contained 1% DMSO for the low-histamine-releasing control.
Suspensions of the rat peritoneal cells (90 μL of 2.75×10^5 cells/mL; →25,000 cells per well) were introduced into each well of a new 96-well microtiter plate (Greiner Bio One, Ref#651261) and 10 μL aliquots of the serially diluted compounds were transferred to the cells in each well. The microtiter plate was incubated for 30 min at room temperature. Following incubation cells were spun down (500 rpm, 7 min) and supernatants were collected for further analysis. Supernatants were diluted 6 times with the assay buffer (15 μL to 75 μL, for 90 μL total) and released histamine content was determined using HTRF® Histamine assay kit (CisBio, cat#62HTMPEB). To measure the total histamine in each well, cells were lysed by addition of 15 μL 5% TritonX-100 to each well followed by incubation for 15 minutes. The plates were then spun at 3000 rpm for 5 minutes, and 10 μL of supernatant were diluted 9-fold in assay buffer (10 μL to 80 μL for 90 μL total) to make the “total” histamine plate. Histamine content was measured as described above for the “released” histamine values.
The standard positive control was Compound 48/80 (Enzo Life Sciences), a oligomeric polymer mixture produced by the condensation of N-methyl-p-methoxyphenethylamine with formaldehyde. The trimer is the most abundant in the mixture Compound 48/80 is used to promote mast cell degranulation and activates G proteins by a mechanism analogous to that of mastoparan. […] See references: T. Higashijima et al., J. Biol., Chem., 265 14176 (1990); M. Mousli et al., FEBS Lett., 259 260 (1990); K. Gietzen et al., Biochim. Biophys. Acta, 736 109 (1983); K. Gietzen, Biochem. J., 1983 216 611 and C. Bronner et al., Biochim. Biophys. Acta, 920 301(1987).

[3] = Table 6, hAPJ HEK cells, NKH477-stimulated cAMP, read-out: EC50 (cAMP inhibition, hAPJ HEK)
[4] = HTRF cAMP Assay, per data of Table 6
[5] = HTRF cAMP Assay, per data of Table 6, read-out: EC50 (hAPJ), inhibition of cAMP production, bound stated

EC50 [1, 3] [nM]	% IA (cAMP inhibition, hAPJ HEK) ([1]; Table 6, hAPJ HEK cells) [%]	Histamine (% vs. 48/80) [2] [%]	EC50 [1, 5] [nM]	inhibition of NKH477-stimulated increase in cAMP, dose dependent [1]	SMILES	Ranking [1]	Emax [1, 4] [%]	EC50 ([1]; EC50 (cAMP inhibition, hAPJ HEK), Table 6, hAPJ HEK cells, NKH477-stimulated cAMP) [nM]	EC50 ([1]; EC50 (hAPJ), inhibition of cAMP production, bound stated, HTRF cAMP Assay, per data of Table 6) [nM]
44	63	67	–	–	CCCCCCCCCCCCCCCC(=O)N[C@H](C(=O)N[C@H](C(=O)N[C@@H](Cc1ccccc1)C(=O)N[C@@H](CCCNC(=N)N)C(=O)N[C@@H](CO)C(=O)N[C@@H](CO)C(=O)N1CCC[C@H]1C(=O)N[C@@H](CCC(=O)O)C(=O)N[C@H](CCCCN)C(=O)N[C@@H](CCCNC(=N)N)C(=O)N[C@@H](CCCNC(=N)N)C(=O)N[C@@H](CO)C(=O)N1CCC[C@H]1C(=O)N[C@@H](C)C(=O)N[C@@H](CC(=O)O)C(=O)N[C@H](C(=O)N[C@@H](Cc1ccccc1)C(N)=O)[C@@H](C)CC)C(C)C)[C@@H](C)O [Compound 23] (HELM PEPTIDE1{[CCCCCCCCCCCCCCCC(=O)[*:2]].T.V.F.R.S.S.P.E.[dK].R.R.S.P.A.D.I.F.[am]}$$$$V2.0)	** (EC50 25-50 nM (hAPJ), % IA 50-79% and either % histamine>35% or formal (+) charge>1)	–	–	–
20	80	47	≤ 25	inhibited	CCCCCCCCCCCCCCCC(=O)N1CCC[C@@H]1C(=O)N[C@H](C(=O)N[C@H](C(=O)N[C@@H](Cc1ccccc1)C(=O)N[C@@H](CCCNC(=N)N)C(=O)N[C@@H](CO)C(=O)N1CCC[C@@H]1C(=O)N[C@@H](CO)C(=O)N[C@@H](CCC(=O)O)C(=O)N[C@H](CCCCN)C(=O)N[C@@H](CCCNC(=N)N)C(=O)N[C@@H](CCCNC(=N)N)C(=O)N[C@@H](CO)C(=O)N[C@@H](C)C(=O)N[C@@H](CC(=O)O)C(=O)N[C@H](C(=O)N[C@@H](Cc1ccccc1)C(N)=O)[C@@H](C)CC)C(C)C)[C@@H](C)O [Compound 29, pTVFRSpSEkRRSADIF] (HELM PEPTIDE1{[CCCCCCCCCCCCCCCC(=O)[*:2]].[dP].T.V.F.R.S.[dP].S.E.[dK].R.R.S.A.D.I.F.[am]}$$$$V2.0)	**** (EC50≦25 nM (hAPJ), % IA≧80% and either % histamine>35% or formal (+) charge>1)	≥ 80	–	–
17	47	60	–	–	CCCCCCCCCCCCCCCC(=O)N[C@H](C(=O)N[C@H](C(=O)N[C@@H](Cc1ccccc1)C(=O)N[C@@H](CCCNC(=N)N)C(=O)N[C@@H](CO)C(=O)N1CCC[C@H]1C(=O)N[C@@H](CO)C(=O)N[C@@H](CCC(=O)O)C(=O)N[C@H](CCCCN)C(=O)N[C@@H](CCCNC(=N)N)C(=O)N[C@@H](CCCNC(=N)N)C(=O)N1CCC[C@H]1C(=O)N[C@@H](CO)C(=O)N[C@@H](C)C(=O)N[C@@H](CC(=O)O)C(=O)N[C@H](C(=O)N[C@@H](Cc1ccccc1)C(N)=O)[C@@H](C)CC)C(C)C)[C@@H](C)O [Compound 22] (HELM PEPTIDE1{[CCCCCCCCCCCCCCCC(=O)[*:2]].T.V.F.R.S.P.S.E.[dK].R.R.P.S.A.D.I.F.[am]}$$$$V2.0)	* (EC50≦50 nM (hAPJ), % IA<50%)	–	–	–
2	101	–	≤ 25	inhibited	CCCCCCCCCCCCCCCC(=O)N[C@@H](CC(=O)O)C(=O)N[C@H](C(=O)N[C@@H](Cc1c[nH]cn1)C(=O)N[C@@H](CCCNC(=N)N)C(=O)N[C@@H](CO)C(=O)N[C@@H](CO)C(=O)N[C@@H](CCC(=O)O)C(=O)N[C@H](CCCCN)C(=O)N[C@@H](CCCNC(=N)N)C(=O)N[C@@H](CCCNC(=N)N)C(=O)N[C@@H](CO)C(=O)N[C@@H](C)C(=O)N[C@@H](CC(=O)O)C(=O)N[C@@H](CCC(N)=O)C(=O)N[C@@H](Cc1ccccc1)C(=O)N[C@H](C(N)=O)[C@@H](C)CC)C(C)C [Compound 36] (HELM PEPTIDE1{[CCCCCCCCCCCCCCCC(=O)[*:2]].D.V.H.R.S.S.E.[dK].R.R.S.A.D.Q.F.I.[am]}$$$$V2.0)	***** (EC50≦25 nM (hAPJ), % IA≧80% and either % histamine≦35% or formal (+) charge≦1)	≥ 80	–	–

SMILES	EC50 [1, 3] [nM]	% IA (cAMP inhibition, hAPJ HEK) ([1]; Table 6, hAPJ HEK cells) [%]	Histamine (% vs. 48/80) [2] [%]	EC50 [1, 5] [nM]	inhibition of NKH477-stimulated increase in cAMP, dose dependent [1]	Ranking [1]	Emax [1, 4] [%]	EC50 ([1]; EC50 (cAMP inhibition, hAPJ HEK), Table 6, hAPJ HEK cells, NKH477-stimulated cAMP) [nM]	EC50 ([1]; EC50 (hAPJ), inhibition of cAMP production, bound stated, HTRF cAMP Assay, per data of Table 6) [nM]
CCCCCCCCCCCCCCCC(=O)N[C@H](C(=O)N[C@H](C(=O)N[C@@H](CC(=O)O)C(=O)N[C@@H](CCCNC(=N)N)C(=O)N[C@@H](CO)C(=O)N[C@@H](CO)C(=O)N[C@@H](CCC(=O)O)C(=O)N[C@H](CCCCN)C(=O)N[C@@H](CCCNC(=N)N)C(=O)N[C@@H](CCCNC(=N)N)C(=O)N[C@@H](CO)C(=O)N[C@@H](C)C(=O)N[C@@H](CC(=O)O)C(=O)N[C@@H](Cc1ccc(CN)cc1)C(=O)N[C@@H](Cc1ccccc1)C(=O)N[C@H](C(N)=O)[C@@H](C)CC)C(C)C)[C@@H](C)O [Compound 34, TVDRSSEkRRSAD(p-CH2NH2-Phe)FI] (HELM PEPTIDE1{[CCCCCCCCCCCCCCCC(=O)[*:2]].T.V.D.R.S.S.E.[dK].R.R.S.A.D.[NCc1ccc(C[C@H](N[*:1])C(=O)[*:2])cc1].F.I.[am]}$$$$V2.0)	30	104	–	25 to 50	–	*** (EC50 25-50 nM (hAPJ), % IA 50-79% and either % histamine≦35% or formal (+) charge≦1)	50 to 79	–	–
CCCCCCCCCCCCCCCC(=O)N[C@@H](CC(=O)O)C(=O)N[C@H](C(=O)N[C@@H](Cc1c[nH]cn1)C(=O)N[C@@H](CCCNC(=N)N)C(=O)N[C@@H](CO)C(=O)N[C@@H](CO)C(=O)N[C@@H](CCC(=O)O)C(=O)N[C@H](CCCCN)C(=O)N[C@@H](CCCNC(=N)N)C(=O)N[C@@H](CCCNC(=N)N)C(=O)N[C@@H](CO)C(=O)N[C@@H](C)C(=O)N[C@@H](CC(=O)O)C(=O)N[C@H](C(=O)N[C@@H](Cc1ccccc1)C(=O)N[C@H](C(N)=O)[C@@H](C)CC)[C@@H](C)CC)C(C)C [Compound 35] (HELM PEPTIDE1{[CCCCCCCCCCCCCCCC(=O)[*:2]].D.V.H.R.S.S.E.[dK].R.R.S.A.D.I.F.I.[am]}$$$$V2.0)	–	90	–	–	–	*** (EC50 25-50 nM (hAPJ), % IA 50-79% and either % histamine≦35% or formal (+) charge≦1)	50 to 79	32	25 to 50
